“Also recorded” adds a separate entry of the source.
Columns and labels:
Type in all cases: in vivo
Male ICR mice [1] = test: Rotarod test (motor coordination)
Protocol: Motor coordination was examined using an automated rotarod device (Singa; Technology Co., Ltd, Taiwan) for a maximum of 6 mice. A computer recorded the latency to fall in seconds. During two-three days training period, the mice were first trained on the rotarod at a constant speed of 20 rotations per minute (rpm) until all of the mice were able to spend at least 3 min on the road. The test drug (0, 30 and 100 mg/kg) was administered 30 min prior to the ketamine (30 mg/kg) or saline injection. Then, the mice were tested 10, 15, 20, 25, and 30 min after ketamine injection.

Male Sprague-Dawley rats = test: Ketamine intravenous self-administration (IVSA) under progressive ratio (PR) schedule
Protocol: The dose-dependent effects of betaine and its metabolite DMG on ketamine addiction were evaluated by the intravenous self-administration (IVSA) paradigm under a progressive ratio (PR) schedule. Animals were implanted indwelling catheters flushing of ketamine (0.5 mg/kg/per infusion), termed the training dose, under a FR1 schedule during daily 3-h sessions. After acquisition of stable responding for ketamine (criterion of less than 20% deviation from the mean of the total number of reinforcers earned in three consecutive sessions for each rat), the ketamine reinforcement schedule was changed to FR2 and maintained until responding stabilized at least for 3 days. Then, the PR schedule was conducted. The lever presses required to gain an infusion was determined by: 5×e^(infusion number×0.2)−5 (i.e., 1, 2, 4, 6, 9, […], 15, 20, 25, 32, etc). […] The dose-dependent effects of betaine of self-administration of various doses of ketamine ([…]) were assessed by pretreatment 30 min prior to their daily operant session using a within-subject Latin square design.

Male ICR mice [2] = test: Prepulse inhibition test (PPI) of acoustic startle; settings: for PPI: ketamine 30 mg/kg alone
Protocol: The PPI was operated as described in our previous work (Chan et al., 2012a). Briefly, the animals were initially moved from the home cage, weighed, and then placed into the restrainers in the SR-LAB (San Diego Instruments, San Diego, Calif., USA) acoustic startle chambers for 30-min habituation. The test drug (0, 30 and 100 mg/kg) was administered 30 min prior to ketamine (30 mg/kg) or saline injection. After administration of ketamine or saline, the experiment started with a 5-min adaptation period during which the animals were exposed to 67-dB background white noise, and this background noise was continued throughout the session. Then, the following adaptation period startle session began with five initial startle stimuli (120 dB bursts of white noise, 40 ms duration). After the first five initial stimuli, mice received five different trial types: pulse alone trials (120 dB bursts of white noise, 40 ms duration), three prepulse and pulse trials in which 76, 81, or 86 dB white noise bursts (9, 14, and 19 dB above background) of 20 ms duration preceded 120 dB pulse by 100 ms prepulse onset to pulse onset, and no-stimuli trials during which only background noise was applied. Each of these trial types was presented five times in randomized order. The inter trial interval was 7-23 s, and the test lasted 15 min in total. Prepulse inhibition was calculated as the percent inhibition of the startle amplitude evoked by the pulse alone: % PPI=(magnitude on pulse alone trial−magnitude on prepulse+pulse trial/magnitude on pulse alone trial)×100.

Male ICR mice [3] = test: Novel object recognition test (NORT)
Protocol: The novel location recognition test (NLRT) and novel object recognition test (NORT) were examined in a Plexiglas open field box (35×35×30 cm) located in a sound-attenuated room and illuminated with a 20-W light bulb. The novel location and novel object recognition procedure consisted of habituation, training, and retention sessions. Habituation was conducted in two consecutive daily sessions, during which each mouse was allowed to individually explore the box in the absence of objects for 20 min. The animal is then removed from the arena and placed in its home cage. During the sample phase, each animal was placed in the box, and after 5 min, two identical sample objects (A+A) were simultaneously introduced in two corners. Each animal was allowed to explore the objects for 5 min. An animal was considered to explore the object when its head was facing the object at a distance of approximately 1 cm or less between the head and object or when it was touching or sniffing the object. The time spent exploring each object was recorded using stopwatches by an experimenter blind to the treatment condition.
After the sample phase, the mice were immediately returned to their home cages. The novel location recognition test was conducted 30 min after the training session. The animals were returned to the same box as during the sample phase, and one of the two objects was replaced with a novel local corner (A+A′) to test the location-based recognition memory. After 24 hours, novel object recognition test was performed. The mice are allowed to explore the open field with one identical sample object and a novel object to assess the novel object recognition memory (A+B). The animals were allowed to explore the box freely for 5 min, and the time spent exploring each object was recorded as described above. The objects and chambers were cleaned with 70% ethanol after each use. A preference index, a ratio of the amount of time spent exploring the original object or the novel location/object over the total time spent exploring both objects, was used to evaluate recognition memory. […]

Male ICR mice [4] = test: Open field test / locomotor activity
Protocol: To evaluate the effect of DMG on ketamine-induced locomotor hyperactivity, the animals were moved from the home cage, weighed and placed into an activity cage (Columbus Auto-Track System, Version 3.0 A, Columbus Institute, Columbus, Ohio, USA) for 2 hours. Thereafter, the test drug (0, 30, and 100 mg/kg) was given 30 min prior to ketamine (30 mg/kg) or saline. The distance (cm) traveled was recorded for totally 180 min. A 70% alcohol solution was used to clean the inner surface of all the testing apparatus between trials to remove any potentially interfering odors left by the previous mouse.

Male ICR mice [5] = test: Loss of righting reflex (LORR)
Protocol: The test drug betaine (0, 300, and 600 mg/kg) or DMG (0, 100 and 300 mg/kg) was administered 30 min prior to the anesthetic doses of ketamine (100 mg/kg). Then, the mice were placed in a clean cage until the righting reflex was lost. They were then placed in the supine position until recovery and the onset and duration of the loss of righting reflex was recorded. Recovery of the righting reflex was defined as the ability to perform three successive rightings.

[6] = betaine 30 and 100 mg/kg alone, 60 min after administration
[7] = betaine 300 and 600 mg/kg 30 min prior to ketamine 100 mg/kg

Row | SMILES | latency to stay on the rotarod (Male ICR mice [1]; ketamine 30 mg/kg, 10-30 min after administration) | ketamine consumption over the dose-response curve (Male Sprague-Dawley rats; ketamine 0.1-0.5 mg/kg/infusion, control (vehicle-treated) animals) | PPI (Male ICR mice [2]) | PPI (Male ICR mice [2]; listed as Ketamine) | recognition index (Male ICR mice [3]; ketamine 30 mg/kg, retention session (24 h)) | total travel distances after ketamine administration (Male ICR mice [4]; ketamine 30 mg/kg, measured for 30 min) | loss of righting reflex (Male ICR mice [5]; ketamine 100 mg/kg i.p. (anesthetic dose)) | ketamine-induced motor in coordination (Male ICR mice [1]; betaine 30 and 100 mg/kg i.p. 30 min prior to ketamine 30 mg/kg) | reduction of ketamine IVSA (Male Sprague-Dawley rats; betaine 100 mg/kg pretreatment, PR schedule) | IVSA of ketamine (Male Sprague-Dawley rats; betaine pretreatment (30 and 100 mg/kg), ketamine 0.1-0.5 mg/kg/infusion, PR schedule) | significant effective dose for reduction of ketamine IVSA (Male Sprague-Dawley rats; betaine pretreatment, PR schedule) [mg/kg] | ketamine-induced disruption of PPI (Male ICR mice [2]; betaine 100 mg/kg pretreatment, ketamine 30 mg/kg) | reduction of PPI (Male ICR mice [2]; betaine prior to saline) | recognition impairing effects of ketamine (Male ICR mice [3]; betaine 30 and 100 mg/kg 30 min prior to ketamine 30 mg/kg, retention session) | ketamine-induced locomotor hyperactivity (Male ICR mice [4]; betaine 30 and 100 mg/kg 30 min prior to ketamine 30 mg/kg) | time in center (Male ICR mice [4]; [6]) | travel distances (locomotor activity) (Male ICR mice [4]; [6]) | duration of ketamine-induced loss of righting reflex (Male ICR mice [5]; [7]) | onset of ketamine-induced loss of righting reflex (Male ICR mice [5]; [7])
1 | CNC1(c2ccccc2Cl)CCCCC1=O (racemic) [ketamine] | significantly decreased | increase | reduced | significantly reduced | significantly reduced | increased | produced a loss of righting reflex; also recorded: produced LORR |  |  |  |  |  |  |  |  |  |  |  | 
2 | C[N+](C)(C)CC(=O)O [betaine] |  |  |  |  |  |  |  | significantly reduced | 3-5 times | dose-dependently reduced | 30 | significantly attenuated | did not | significantly reversed | not affected | did not affect | did not affect | did not affect | did not affect
